# Assay results published in patent US10472663B2, “Procedure for the rapid determination of bacterial susceptibility to antibiotics that inhibit protein synthesis” (ABM TECHNOLOGIES, LLC, priority 2015, dated 2019).
# Key:
# Type in all cases: cell-based
# [1] = tested on: Escherichia coli; assay: Micromax assay of ciprofloxacin-induced DNA fragmentation after a protein synthesis inhibitor (Example 1); settings: for DNA fragmentation of nucleoids: tobramycin 4 μg/ml 10 min followed by ciprofloxacin 1 μg/ml 30 min
# Description: As an exemplification of the principals previously described, two strains of Escherichia coli exponentially growing in Mueller-Hinton broth were assayed (FIGS. 1-6). The first strain of Escherichia coli was a TG1 strain susceptible to both the aminoglycoside tobramycin (an inhibitor of protein synthesis) and the quinolone ciprofloxacin (an agent which induces DNA fragmentation by trapping of topoisomerases in DNA) (FIGS. 1-3). The second strain was a clinical isolate resistant to tobramycin and susceptible to ciprofloxacin (FIGS. 4-6). Four treatments were applied to each strain to rapidly distinguish the susceptible and the resistant strain to tobramycin.
# One portion of both bacterial strains was incubated with tobramycin at 4 μg/ml for 40 minutes (FIGS. 1 and 4), a dosage indicated by the CLSI as the breakpoint of susceptibility to tobramycin in the standard antibiogram based on microdilution. Another portion of both strains was incubated with ciprofloxacin at 1 μg/ml for 30 min (FIGS. 2 and 5). Still another portion of both strains was incubated with tobramycin at 4 μg/ml for 10 min followed by ciprofloxacin at 1 μg/ml for 30 min, without removing the tobramycin (FIGS. 3 and 6). A final portion was left with no antibiotic.
# After each incubation cells were processed using the variant of the Micromax technology to visualize the nucleoids, i.e. bacterial chromosomal DNA, in all the cells of the population. Cells from each culture were immersed in an agarose microgel on a slide and incubated with a specific lysing solution to remove the cell wall in all the cells and release in the microgel the nucleoids contained inside the bacteria. These are dried, stained with a high sensitive fluorochrome for DNA like SYBR Gold and visualized under fluorescence microscopy. FIGS. 1-6 depicts representative images captured under each of the conditions described below.
# The above described methodology was employed to rapidly determine the susceptibility of 12 strains of E. coli to tobramycin. One portion of each bacterial strain was incubated with tobramycin at the susceptibility breakpoint dosage, 4 μg/ml, for 40 min. A portion of each strain was incubated with ciprofloxacin at 1 μg/ml for 30 min. Still another portion of each strain was incubated with tobramycin at 4 μg/ml for 10 min followed by ciprofloxacin at 1 μg/ml for 30 min, without removing the tobramycin. A final portion of each strain was left with no antibiotic. E. coli strains were identified as susceptible or not based on the levels of DNA fragmentation in the portion of each strain incubated with ciprofloxacin and the portion incubated with tobramycin and ciprofloxacin.
# The principals exemplified in Example 1 were confirmed with the aminoglycoside amikacin. Briefly, a susceptible and resistant strain of E. coli were exposed to similar conditions to those described in Example 1, except that amikacin was utilized as the protein synthesis inhibiting antibiotic. Specifically, each was strain subjected to four treatments. One portion received no antibiotics, and another portion received only a quinolone, such as ciprofloxacin or norfloxacin to induce DNA fragmentation. Still another portion received the protein synthesis inhibiting antibiotic aminoglycoside amikacin, followed by the quinolone. Another portion received only amikacin. A final portion received neither antibiotic.
# The principals exemplified in Example 1 were further confirmed with the aminoglycoside gentamicin. Briefly, the rapid test was performed on 15 isolated E. coli strains according to the methodology described above, except that gentamicinin was utilized as the protein synthesis inhibiting antibiotic. Suppressed DNA fragmentation were used to characterize bacterial susceptibility and those characterizations were verified with the standard antibiogram for gentamicin by microdilution. […]
# [2] = tested on: Escherichia coli; assay: Micromax assay of mitomycin C-induced DNA fragmentation after tobramycin (Example 2); settings: for DNA fragmentation of nucleoids: tobramycin 4 μg/ml 30 min followed by mitomycin C 50 μg/ml 60 min
# Description: FIGS. 7-9 depict a TG1 strain susceptible to the aminoglycoside tobramycin, an inhibitor of protein synthesis, and mitomycin C, an agent which induces DNA damage. The other strain illustrated in FIGS. 10-12 was a clinical isolate resistant to tobramycin.
# One portion of both bacterial strains was incubated with tobramycin at 4 μg/ml for 90 min (FIGS. 7 and 10), a dosage indicated by the CLSI as the breakpoint of susceptibility to tobramycin in the standard antibiogram based on microdilution. Another portion of both strains was incubated with mitomycin C at 50 μg/ml for 60 min (FIGS. 8 and 11). Still another portion of both strains was incubated with tobramycin at 4 μg/ml for 30 min followed by mitomycin C at 50 μg/ml for 60 min, without removing the tobramycin (FIGS. 9 and 12). A final portion was left with no antibiotic.
# After incubation, cells were processed using a variant of the Micromax technology to visualize nucleoids, i.e. bacterial chromosomal DNA, in all the cells of the population. Samples from cells from the culture are immersed in an agarose microgel on a slide and incubated with a specific lysing solution to remove the cell wall in all the cells and release in the microgel the nucleoids contained inside the bacteria. These are dried, stained with a highly sensitive fluorochrome for DNA like SYBR Gold and visualized under fluorescence microscopy, Nucleoids from E. coli obtained using the Micromax assay are represented in FIGS. 7-12, FIGS. 7-9 correspond to a strain susceptible to tobramycin (TG1) and FIGS. 10-12 to a strain resistant to tobramycin.
# [3] = tested on: Klebsiella pneumoniae; assay: Variant Micromax assay of cell wall damage by meropenem after tobramycin, twelve strains; settings: for cell wall lysis by meropenem: tobramycin 4 μg/ml 15 min followed by meropenem 1 μg/ml 60 min
# Description: After incubation cells were processed using a variant Micromax technology to visualize the affectation or not of the cell wall based on the release or not of the nucleoids contained inside the bacteria. In the same manner described previously, samples from cells from the culture are immersed in an agarose microgel on a slide and incubated with a specific lysing solution that removes the cell wall only in those bacteria whose peptidoglycan was affected, thus releasing in the microgel the nucleoids contained inside. […] The processed bacteria in microgel are dried, stained with a high sensitive fluorochrome for DNA like SYBR Gold and visualized under fluorescence microscopy.
# Further exemplifying the concept described above twelve strains of Klebsiella pneumoniae, 7 susceptible and 5 resistant to tobramycin, were processed using the same rationale and procedure. Specifically, one portion of each was incubated with tobramycin at 4 μg/ml for 75 min. Another portion was incubated with Meropenem at 1 μg/ml for 60 min. Still another portion was incubated with tobramycin at 4 μg/ml for 15 minutes followed by meropenem at 1 μg/ml for 60 min, without removing the tobramycin. A final portion remained without any antibiotics.
# [4] = rapid test, confirmed by microdilution antibiogram, 12 strains for tobramycin, 15 for gentamicin
# [5] = tobramycin-resistant clinical isolate
# [6] = tobramycin-susceptible TG1 strain
smiles,measurement,setting,value
NC[C@H]1O[C@H](O[C@H]2[C@H](O)[C@@H](O[C@H]3O[C@H](CO)[C@@H](O)[C@H](N)[C@H]3O)[C@H](N)C[C@@H]2N)[C@H](N)C[C@@H]1O [tobramycin],E. coli strains identified as non-susceptible (resistant),[1]; [4],three of the twelve strains as non-susceptible
same,E. coli strains identified as susceptible,[1]; [4],nine of the twelve strains as susceptible
same,DNA fragmentation of nucleoids,[1]; [5],the DNA was extensively fragmented
same,DNA fragmentation of nucleoids,[1]; [6],nucleoids with reduced level of DNA fragmentation
same,modification of nucleoids,"[1]; tobramycin alone 4 μg/ml 40 min, both tobramycin-susceptible and -resistant strains",did not result in any modifications of the nucleoids
same,DNA fragmentation of nucleoids,[2]; [5],the DNA remained fragmented
same,DNA fragmentation of nucleoids,[2]; [6],nucleoids without observable DNA fragmentation
same,modification of nucleoids,"[2]; tobramycin alone 4 μg/ml 90 min, both strains",does not result in modifications of the nucleoids
same,strains resistant to tobramycin,[3]; of twelve strains,5
same,strains susceptible to tobramycin,[3]; of twelve strains,7
same,cell wall lysis by meropenem,[3]; tobramycin-resistant strains,the affectation of the cell wall by meropenem was not suppressed
same,cell wall lysis by meropenem,[3]; tobramycin-susceptible strains,no appearance of cell wall lysis by meropenem
